# In PMC9779571, “Guanidine Derivatives Containing the Chalcone Skeleton Are Potent Antiproliferative Compounds against Human Leukemia Cells” (International Journal of Molecular Sciences, 2022):
# Assays:
# Type in all cases: cell-based, human
# U-937 cells [1] = assay: Western blot of PARP, caspases and cytosolic cytochrome c; conditions: 24 h; for full-length PARP protein (immunoblot): U-937, 10 µM; for mitochondrial cytochrome c release (cytosolic fraction, immunoblot): U-937, increasing concentrations
# Method: For whole cell lysates, cells were harvested by centrifugation (500× g, 10 min, 4 °C), washed twice with PBS, and pellets were resuspended in lysis buffer (1% Triton X-100, 10 mM sodium fluoride, 2 mM EDTA, 20 mM Tris-HCl (pH 7.4), 2 mM tetrasodium pyrophosphate, 10% glycerol, 137 mM NaCl, and 20 mM sodium β-glycerophosphate), with the protease inhibitors phenylmethylsulfonyl fluoride (PMSF, 1 mM), aprotinin, leupeptin, and pepstatin A (5 μg/mL each) and kept on ice for 15 min. Cells were sonicated on ice 5 times (5 s each, with intervals between each sonication of 5 s) with a Braun Labsonic 2000 microtip sonifier and centrifuged (11,000× g, 10 min, 4 °C). For subcellular fractionation, cells were washed twice with PBS and then resuspended in ice-cold buffer (20 mM HEPES (pH 7.5), 250 mM sucrose, 10 mM KCl, 1.5 mM MgCl2, 1 mM EDTA, 1 mM EGTA, and 1 mM dithiothreitol containing protease inhibitors (0.1 mM PMSF and 1 µg/mL leupeptin, aprotinin, and pepstatin A)). After 15 min on ice, cells were lysed by pushing them several times through a 29-gauge needle, and the lysate was centrifuged at 1000× g for 5 min at 4 °C. The resulting supernatant fraction was centrifuged at 15,000× g for 20 min at 4 °C, and the resulting supernatant was used as the cytosolic fraction. The Bradford method was used to determine protein concentration. The samples loaded in sodium dodecyl sulfate-polyacrylamide gel (from 7.5 to 15% depending on the molecular weight of interest) were prepared with the same protein amount and boiled for 5 min. The proteins were transferred to poly(vinylidene difluoride) membranes for 20 h at 20 V. The membranes were blocked with 10% nonfat milk in Tris-buffered saline (50 mM Tris-HCl (pH 7.4), 150 mM NaCl) containing 0.1% Tween-20 (TBST) for 1 h, followed by incubation with specific antibodies against caspase-3, PARP, caspase-9, β-actin, tubulin, and cytochrome c overnight at 4 °C. Membranes were washed three times with TBST and incubated for 1 h with the specific secondary antibody and the antigen-antibodies complexes were visualized by enhanced chemiluminescence using the manufacturer’s protocol.
# U-937 cells [2] = assay: Annexin V-FITC/propidium iodide flow cytometry, U-937; conditions: U-937, 10 µM, 24 h; for annexin V-FITC positive cells: control 3.5%
# Method: (§1) Cells (2.5 × 10^5) were centrifuged for 10 min at 500× g, washed with cold PBS, fixed with ice-cold 75% ethanol and stored at −20 °C overnight. Samples were then centrifuged at 500× g for 10 min at 4 °C, washed with PBS, resuspended in 200 μL of PBS containing 100 μg/mL RNase and 50 μg/mL propidium iodide and incubated for 1 h in the dark. The DNA content was analyzed by flow cytometry with a BD FACSVerse^TM cytometer (BD Biosciences, San Jose, CA, USA). Apoptosis was also evaluated by flow cytometric analysis of double-staining annexin V-FITC and propidium iodide cells as previously described.
# MOLT-3 cells = assay: MTT cytotoxicity assay, MOLT-3; conditions: means ± SEM
# From the text: (§2) U-937, HL-60, MOLT-3, NALM-6, and SK-MEL-1 cells were from DSMZ (German Collection of Microorganisms and Cell Cultures, Braunschweig, Germany). U-937/Bcl-2 cells were kindly provided by Dr. Jacqueline Bréard (INSERM U749, Faculté de Pharmacie Paris-Sud, Châtenay-Malabry, France). The U-937 is a pro-monocytic, human promyelocytic leukemia cell line that was isolated from a histiocytic lymphoma. HL-60 is a human acute myeloid leukemia cell line. MOLT-3 is a human acute lymphoblastic leukemia cell line. NALM-6 is a human B cell precursor leukemia. SK-MEL-1 is a human melanoma cell line growing singly or in clumps (occasional giant, polynucleated cell) in suspension. Cells were cultured in RPMI 1640 medium containing 10% (v/v) heat-inactivated fetal bovine serum, 100 μg/mL streptomycin, and 100 U/mL penicillin, incubated at 37 °C in a humidified atmosphere containing 5% CO2 as described. The doubling times of the cell lines were 24 h in HL-60, 30 h in U-937, U-937/Bcl-2, 40 h in MOLT-3 and NALM-6, and several days in SK-MEL-1 cells. Human peripheral blood mononuclear cells (PBMC) were isolated from heparin-anticoagulated blood of healthy volunteers by centrifugation with Ficoll-Paque Plus (GE Healthcare Bio-Sciences AB, Uppsala, Sweden). PBMC were also stimulated with phytohemagglutinin (2 µg/mL) for 48 h before the experimental treatment. The trypan blue exclusion method was used for counting the cells by a hemocytometer with 95% viability in all the experiments. Compounds were dissolved in dimethyl sulfoxide (DMSO) and kept under dark conditions at 25 °C. […] The cytotoxicity of the synthetic compounds was evaluated by colorimetric 3-(4,5-dimethyl-2-thiazolyl-)-2,5-diphenyl-2H-tetrazolium bromide (MTT) assay as previously described. Briefly, cells (5000 per well) were incubated with increasing concentrations of compounds for 72 h into a 96-well plate. Then, the supernatants were removed and 0.5 mg/mL MTT was added and incubated for 4 h at 37 °C. Sodium dodecyl sulfate (10% w/v) in 0.05 M HCl was added to solubilize the reaction products and the absorbance was measured at 570 nm with a reference wavelength of […] using an ELISA reader (Bio-Rad, Hercules, CA, USA). The IC50 values (concentrations inducing a 50% inhibition of cell viability) were determined graphically for each experiment by a nonlinear regression using the curve fitting routine implemented within the software Prism 5.0 (GraphPad, La Jolla, CA, USA).
# PBMC = assay: Annexin V-FITC/propidium iodide flow cytometry, PBMC; conditions: 24 h; for annexin V-FITC positive cells with respect to control: 3 µM; for fold increase of annexin V-FITC positive cells with respect to control / annexin V-FITC positive cells: 10 µM; for annexin V-FITC positive cells: control 9.3%
# From the text: as §2, §1
SMILES,full-length PARP protein (immunoblot) (U-937 cells [1]),"mitochondrial cytochrome c release (cytosolic fraction, immunoblot) (U-937 cells [1])",fold increase of annexin V-FITC positive cells over control (U-937 cells [2]) [fold],annexin V-FITC positive cells (U-937 cells [2]) [%],"IC50 (MOLT-3 cells; Homo sapiens, MOLT-3, 72 h) [µM]",annexin V-FITC positive cells with respect to control (PBMC),fold increase of annexin V-FITC positive cells with respect to control (PBMC) [fold],annexin V-FITC positive cells (PBMC) [%],IC50 (MOLT-3 cells; 72 h) [µM]
Cc1ccc(S(=O)(=O)NC(=Nc2ccc(/C=C/C(=O)c3c(O)cccc3OCc3ccccc3)cc2)N2CCN(C)CC2)cc1 [Compound 6f],dramatically decreased,concentration-dependent release,11,38,1.5,hardly increased,3,27,
O=C(/C=C/c1ccc(N=C(Nc2ccccc2)N2CCCCC2)cc1)c1c(O)cccc1OCc1ccccc1 [Compound 6i],dramatically decreased,concentration-dependent release,10,36,< 10,hardly increased,1.4,13,7.1 ± 1.3
